The record followed here is ChEMBL document CHEMBL5360519, “Chemical similarities and differences among inhibitors of nitric oxide synthase, arginase and dimethylarginine dimethylaminohydrolase-1: Implications for the design of novel enzyme inhibitors modulating the nitric oxide pathway” (Bioorg Med Chem, 2022).

The target in assay [1] is T1, Nitric oxide synthase, inducible (Mus musculus, UniProt P29477).
T1 sequence (P29477 whole entry): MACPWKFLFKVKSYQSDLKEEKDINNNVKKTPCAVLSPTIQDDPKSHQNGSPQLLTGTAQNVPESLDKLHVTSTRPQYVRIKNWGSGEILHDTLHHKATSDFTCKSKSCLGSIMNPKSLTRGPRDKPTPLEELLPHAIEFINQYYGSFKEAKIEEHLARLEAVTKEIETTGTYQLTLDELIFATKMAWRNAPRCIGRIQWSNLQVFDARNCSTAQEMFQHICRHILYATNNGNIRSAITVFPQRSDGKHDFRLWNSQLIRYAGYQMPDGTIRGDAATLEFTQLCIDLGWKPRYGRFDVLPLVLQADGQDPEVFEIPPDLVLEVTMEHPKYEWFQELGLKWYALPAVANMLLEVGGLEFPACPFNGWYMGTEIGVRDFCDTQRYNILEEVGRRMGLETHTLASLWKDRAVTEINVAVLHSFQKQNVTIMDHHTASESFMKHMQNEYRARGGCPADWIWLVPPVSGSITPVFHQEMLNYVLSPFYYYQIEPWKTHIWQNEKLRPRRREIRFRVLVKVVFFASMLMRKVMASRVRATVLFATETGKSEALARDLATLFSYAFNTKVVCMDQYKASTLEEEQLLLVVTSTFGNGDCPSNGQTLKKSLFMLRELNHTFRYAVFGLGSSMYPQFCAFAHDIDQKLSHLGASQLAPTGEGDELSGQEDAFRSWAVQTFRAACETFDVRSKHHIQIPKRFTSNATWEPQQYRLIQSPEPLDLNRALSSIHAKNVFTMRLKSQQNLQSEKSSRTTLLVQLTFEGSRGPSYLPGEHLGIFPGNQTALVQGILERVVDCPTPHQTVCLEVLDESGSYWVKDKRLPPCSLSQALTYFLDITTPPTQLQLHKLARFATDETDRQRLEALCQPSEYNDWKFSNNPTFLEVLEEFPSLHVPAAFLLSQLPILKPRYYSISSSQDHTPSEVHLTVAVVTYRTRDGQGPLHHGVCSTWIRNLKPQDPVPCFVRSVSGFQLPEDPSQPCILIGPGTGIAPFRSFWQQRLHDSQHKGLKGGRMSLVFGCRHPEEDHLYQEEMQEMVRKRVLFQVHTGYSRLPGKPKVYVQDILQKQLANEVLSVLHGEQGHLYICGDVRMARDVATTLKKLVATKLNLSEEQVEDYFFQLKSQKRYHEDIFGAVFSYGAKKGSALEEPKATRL
The assay can be described thus: Inhibition of mouse iNOS.

The target of assay [2] is T2, Nitric oxide synthase 3 (Bos taurus, UniProt P29473).
T2 sequence (P29473 whole entry): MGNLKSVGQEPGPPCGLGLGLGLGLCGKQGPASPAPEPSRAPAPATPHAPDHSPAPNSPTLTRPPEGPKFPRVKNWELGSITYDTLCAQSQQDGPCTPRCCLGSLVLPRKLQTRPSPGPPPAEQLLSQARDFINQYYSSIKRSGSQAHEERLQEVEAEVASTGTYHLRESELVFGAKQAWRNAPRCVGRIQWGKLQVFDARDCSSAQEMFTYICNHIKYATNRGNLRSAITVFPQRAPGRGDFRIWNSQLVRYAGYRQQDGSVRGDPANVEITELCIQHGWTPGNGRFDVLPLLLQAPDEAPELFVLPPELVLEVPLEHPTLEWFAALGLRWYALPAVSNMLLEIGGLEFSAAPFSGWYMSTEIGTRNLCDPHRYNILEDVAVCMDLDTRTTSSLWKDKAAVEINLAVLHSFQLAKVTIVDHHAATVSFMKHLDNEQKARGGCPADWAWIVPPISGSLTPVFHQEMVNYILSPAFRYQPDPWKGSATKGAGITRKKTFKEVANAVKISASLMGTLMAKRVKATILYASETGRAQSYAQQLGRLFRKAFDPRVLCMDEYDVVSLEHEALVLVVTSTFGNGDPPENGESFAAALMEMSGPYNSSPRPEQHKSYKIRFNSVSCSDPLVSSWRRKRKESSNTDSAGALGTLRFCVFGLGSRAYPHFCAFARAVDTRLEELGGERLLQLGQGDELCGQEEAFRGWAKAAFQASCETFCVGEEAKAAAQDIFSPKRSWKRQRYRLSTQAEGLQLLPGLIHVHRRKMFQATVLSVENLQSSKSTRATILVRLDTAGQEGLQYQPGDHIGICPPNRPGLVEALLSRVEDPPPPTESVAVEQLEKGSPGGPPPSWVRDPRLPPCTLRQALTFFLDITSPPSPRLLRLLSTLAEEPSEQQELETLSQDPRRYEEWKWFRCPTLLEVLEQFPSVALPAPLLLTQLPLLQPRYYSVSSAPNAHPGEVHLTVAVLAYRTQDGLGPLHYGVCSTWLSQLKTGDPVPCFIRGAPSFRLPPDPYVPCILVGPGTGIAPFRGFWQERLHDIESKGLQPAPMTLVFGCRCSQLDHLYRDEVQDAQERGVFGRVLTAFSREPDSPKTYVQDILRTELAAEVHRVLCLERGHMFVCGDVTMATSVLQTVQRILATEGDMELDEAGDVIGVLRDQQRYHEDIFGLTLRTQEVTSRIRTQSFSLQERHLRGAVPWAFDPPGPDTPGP
Put plainly: Inhibition of bovine eNOS.

A short description of assay [3]: Inhibition of bovine nNOS. Also on record: species or system Bos taurus.
Assay [4] concerns the target T3, Arginase-2, mitochondrial (Homo sapiens, UniProt P78540).
T3 sequence (P78540 whole entry): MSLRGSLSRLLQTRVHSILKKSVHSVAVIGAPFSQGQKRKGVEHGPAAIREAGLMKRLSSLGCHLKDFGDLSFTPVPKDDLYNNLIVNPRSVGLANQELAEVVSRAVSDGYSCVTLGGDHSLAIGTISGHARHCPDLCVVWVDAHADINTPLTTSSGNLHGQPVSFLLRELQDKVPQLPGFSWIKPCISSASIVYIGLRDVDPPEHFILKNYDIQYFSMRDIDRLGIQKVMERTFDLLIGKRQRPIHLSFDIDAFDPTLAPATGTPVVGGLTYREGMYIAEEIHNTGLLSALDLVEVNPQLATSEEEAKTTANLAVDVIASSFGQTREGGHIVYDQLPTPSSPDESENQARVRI
The assay can be described thus: Inhibition of arginase 2 in human LNCaP cells. The assay is classed as cell-based.

The next assay deals with T4, Arginase-1 (Rattus norvegicus, UniProt P07824).
T4 sequence (P07824 whole entry): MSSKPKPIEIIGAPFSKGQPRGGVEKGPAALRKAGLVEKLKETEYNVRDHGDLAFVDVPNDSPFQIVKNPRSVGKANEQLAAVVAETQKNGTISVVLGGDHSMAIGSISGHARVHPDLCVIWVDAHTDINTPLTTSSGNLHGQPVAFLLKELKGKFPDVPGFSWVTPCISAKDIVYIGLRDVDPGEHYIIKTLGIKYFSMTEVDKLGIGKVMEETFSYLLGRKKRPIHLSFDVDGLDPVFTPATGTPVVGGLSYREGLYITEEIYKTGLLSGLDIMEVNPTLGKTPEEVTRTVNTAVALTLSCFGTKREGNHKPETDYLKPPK
The assay can be described thus: Inhibition of N-terminal hexa-histidine tagged thrombin-cleavable rat arginase 1 expressed in Escherichia coli DE3 cells measured after 90 mins by colorimetric urea assay.

The target of assay [5] is N(G),N(G)-dimethylarginine dimethylaminohydrolase 1 (Homo sapiens, UniProt O94760). Put plainly: Inhibition of human DDAH1 using [14C]-L-NMMA as substrate assessed as reduction in [14C]-citrulline conversion measured after 1 hrs by scintillation counting analysis.
Assay [6] concerns the target T5, Nitric oxide synthase 3 (Homo sapiens, UniProt P29474).
T5 sequence (P29474 whole entry): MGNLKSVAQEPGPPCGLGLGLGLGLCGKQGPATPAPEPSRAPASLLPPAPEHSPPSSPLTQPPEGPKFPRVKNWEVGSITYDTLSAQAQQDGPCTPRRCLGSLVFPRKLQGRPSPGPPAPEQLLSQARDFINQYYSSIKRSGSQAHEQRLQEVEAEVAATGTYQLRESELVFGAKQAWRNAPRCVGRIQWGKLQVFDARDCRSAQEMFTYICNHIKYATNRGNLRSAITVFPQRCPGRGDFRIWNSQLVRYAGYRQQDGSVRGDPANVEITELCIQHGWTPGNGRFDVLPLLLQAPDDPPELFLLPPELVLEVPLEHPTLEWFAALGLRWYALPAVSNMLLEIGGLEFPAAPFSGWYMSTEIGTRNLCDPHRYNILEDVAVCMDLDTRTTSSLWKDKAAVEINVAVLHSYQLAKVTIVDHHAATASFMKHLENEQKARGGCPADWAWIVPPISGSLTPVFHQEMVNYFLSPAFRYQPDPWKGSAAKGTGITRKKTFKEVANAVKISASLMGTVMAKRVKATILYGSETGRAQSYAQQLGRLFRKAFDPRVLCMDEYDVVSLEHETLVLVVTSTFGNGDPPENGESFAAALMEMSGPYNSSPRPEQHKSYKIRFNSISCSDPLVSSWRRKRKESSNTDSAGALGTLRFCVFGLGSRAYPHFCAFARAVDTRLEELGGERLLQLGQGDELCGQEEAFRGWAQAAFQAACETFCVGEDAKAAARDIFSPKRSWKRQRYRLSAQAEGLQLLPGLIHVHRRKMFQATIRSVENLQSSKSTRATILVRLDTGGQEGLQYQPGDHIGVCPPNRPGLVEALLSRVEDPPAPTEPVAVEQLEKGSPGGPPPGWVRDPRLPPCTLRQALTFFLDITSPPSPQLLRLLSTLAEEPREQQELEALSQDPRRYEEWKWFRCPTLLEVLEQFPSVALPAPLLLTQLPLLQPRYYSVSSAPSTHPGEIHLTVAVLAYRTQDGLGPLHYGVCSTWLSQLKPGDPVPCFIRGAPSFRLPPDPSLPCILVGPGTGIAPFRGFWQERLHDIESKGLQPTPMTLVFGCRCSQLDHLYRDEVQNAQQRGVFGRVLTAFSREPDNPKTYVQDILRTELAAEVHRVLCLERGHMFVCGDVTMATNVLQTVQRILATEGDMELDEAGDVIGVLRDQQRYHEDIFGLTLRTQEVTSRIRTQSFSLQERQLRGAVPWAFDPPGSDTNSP
Put plainly: Inhibition of human eNOS overexpressed in baculovirus infected Sf21 cells assessed as inhibition constant.

Assay [7] concerns the target Nitric oxide synthase, inducible (Homo sapiens, UniProt P35228). Put plainly: Inhibition of human iNOS overexpressed in baculovirus infected Sf21 cells assessed as inhibition constant.
Assay [8] in a line: Inhibition of human arginase in human HT-29 cells assessed as inhibition constant. The format is cell-based.

Sequence of Nitric oxide synthase, inducible (Homo sapiens, UniProt P35228) (P35228 whole entry): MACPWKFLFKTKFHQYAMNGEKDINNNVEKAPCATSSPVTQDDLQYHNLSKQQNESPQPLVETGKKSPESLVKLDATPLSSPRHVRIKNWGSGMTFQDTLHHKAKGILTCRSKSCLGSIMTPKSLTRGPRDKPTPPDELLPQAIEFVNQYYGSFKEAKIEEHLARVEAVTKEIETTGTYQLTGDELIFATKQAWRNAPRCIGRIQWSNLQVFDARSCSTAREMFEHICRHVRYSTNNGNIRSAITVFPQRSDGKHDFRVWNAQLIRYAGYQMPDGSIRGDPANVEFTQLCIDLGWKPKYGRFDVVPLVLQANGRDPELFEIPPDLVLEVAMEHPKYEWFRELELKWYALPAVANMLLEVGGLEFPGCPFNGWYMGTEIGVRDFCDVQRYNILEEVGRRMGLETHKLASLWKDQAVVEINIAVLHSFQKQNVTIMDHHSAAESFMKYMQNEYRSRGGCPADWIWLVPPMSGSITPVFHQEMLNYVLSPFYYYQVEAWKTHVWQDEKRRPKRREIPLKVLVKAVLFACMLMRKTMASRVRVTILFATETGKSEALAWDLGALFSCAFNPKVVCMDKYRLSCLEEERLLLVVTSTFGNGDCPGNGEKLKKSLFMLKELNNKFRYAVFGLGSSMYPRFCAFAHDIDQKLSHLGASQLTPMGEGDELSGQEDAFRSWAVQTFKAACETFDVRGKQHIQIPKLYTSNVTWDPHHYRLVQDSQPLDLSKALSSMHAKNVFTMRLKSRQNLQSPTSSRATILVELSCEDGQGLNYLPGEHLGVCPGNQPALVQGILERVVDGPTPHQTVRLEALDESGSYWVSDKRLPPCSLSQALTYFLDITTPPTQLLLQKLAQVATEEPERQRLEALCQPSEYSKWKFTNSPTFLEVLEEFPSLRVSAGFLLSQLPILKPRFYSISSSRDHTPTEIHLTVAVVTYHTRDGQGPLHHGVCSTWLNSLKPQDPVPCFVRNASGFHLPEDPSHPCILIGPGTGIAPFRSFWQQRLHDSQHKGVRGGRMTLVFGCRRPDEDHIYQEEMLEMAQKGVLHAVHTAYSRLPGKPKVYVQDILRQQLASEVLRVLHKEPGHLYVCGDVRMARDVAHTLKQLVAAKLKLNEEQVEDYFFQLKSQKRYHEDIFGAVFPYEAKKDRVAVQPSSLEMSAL
Sequence of N(G),N(G)-dimethylarginine dimethylaminohydrolase 1 (O94760 whole entry): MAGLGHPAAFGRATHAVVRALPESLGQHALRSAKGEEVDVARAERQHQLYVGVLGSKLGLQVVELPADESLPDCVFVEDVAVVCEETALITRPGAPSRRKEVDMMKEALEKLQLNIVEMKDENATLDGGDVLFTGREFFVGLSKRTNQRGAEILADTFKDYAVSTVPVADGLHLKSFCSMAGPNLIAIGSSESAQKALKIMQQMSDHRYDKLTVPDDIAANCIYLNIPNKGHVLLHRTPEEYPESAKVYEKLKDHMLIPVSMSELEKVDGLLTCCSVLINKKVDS

Usually IC50 stands for the concentration that inhibits the measured activity by half. In the case of `N=C(NN)NO`, the concentration for half-maximal inhibition (IC50) was determined as 23 µM in [1], 23 µM against Nitric oxide synthase 3 [2] and 17 µM in [3].

In turn, `O=C(O[C@@H]1O[C@@H]2COC(=O)c3cc(Oc4c(C(=O)O[C@@H]5[C@@H](OC(=O)c6cc(O)c(O)c(O)c6)[C@@H]6OC(=O)c7cc(O)c(O)c(O)c7-c7c(cc(O)c(O)c7O)C(=O)OC[C@H]6O[C@H]5O)cc(O)c(O)c4O)c(O)c(O)c3-c3c(cc(O)c(O)c3O)C(=O)O[C@@H]2[C@@H](OC(=O)c2cc(O)c(O)c(O)c2)[C@H]1O)c1cc(O)c(O)c(O)c1` gave a concentration for half-maximal inhibition (IC50) in assay [4] of 19.2 µM.

What is called Ki is a dissociation constant, usually derived from enzyme kinetics or from competition with a known ligand. For `N[C@@H](CCCCB(O)O)C(=O)O`, affinity at Arginase-1 was put at a Ki of 0.11 µM.

Regarding `C/N=C(\N)NCC[C@H](N)C(=O)O`, the IC50 in [5] is 250 µM.

For `C[C@H]1CC(=N)N[C@@H]2[C@H](Cl)[C@@H]21` (racemic), the results for the Ki (on Nitric oxide synthase 3 [6]; in assay [7]) were 0.018 µM and 0.002 µM, respectively.

On to `NCCCC(N)(C(=O)O)C(F)F` (racemic) [EFLORNITHINE], for which the inhibition constant Ki in assay [8] came out at 3900 µM.
